Experimental data reported in patent publication US6787562B2, “Substituted aryl and heteroaryl compounds as E-type prostaglandin antagonists” (Zeneca Ltd., priority 1995, dated 2004).

Assays:
[1] = tested on: guinea pig ileum; conditions: cited from earlier work
[2] = tested on: dog fundus; conditions: cited from earlier work

Work on `CCN(Cc1ccc(C(=O)O)cc1)c1cc(Br)ccc1OCc1ccccc1` [Example 38, 4-[N-(2-Benzyloxy-5-bromophenyl)-N-ethylaminomethyl]benzoic Acid] yielded a melting point of 94.5 to 95 °C.

`CCN(Cc1ccccc1Oc1ccccc1)c1ccc(C(=O)O)cn1` [Example 13, 2-(N-ethyl-N-(2-phenoxybenzyl)amino)pyridine-5-carboxylic Acid] showed a melting point of 170.5 to 172 °C.

`O=C(O)c1ccc(CCc2ccccc2CCc2ccccc2)cc1O` [Example 33, 2-Hydroxy-4-[(2-phenethyl)phenethyl]benzoic Acid] showed a melting point of 134 to 137 °C.

`CCN(Cc1ccccc1Oc1ccccc1)c1ccc(C(=O)O)nn1` [Example 12, 6-(N-Ethyl-N-(2-phenoxybenzyl)amino)pyridazine-3-carboxylic Acid] gave a melting point of 70 to 75 °C.

For `CC(=O)NNC(=O)N1Cc2ccccc2Oc2ccc(Cl)cc21` [SC-19220], the “effect of PGE2 on tissue blocked” value [1] is listed as “blocks the effect of PGE2” and the “effect of PGE2 on tissue blocked” value [2] is listed as “blocks the effect of PGE2”.

With `O=C(O)c1ccc(CNc2cc(Br)ccc2OCc2ccccc2)cc1` [Example 37, 4-[N-(2-Benzyloxy-5-bromophenyl)aminomethyl]benzoic Acid] the melting point was 216 to 217 °C.

Compound `CC(c1ccc(C(=O)O)cc1)N(C)c1ccc(Br)cc1OCc1ccccc1` (centres unmarked) [Example 40, 4-[1-(N-(2-Benzyloxy-4-bromophenyl)-N-methylamino)ethyl]benzoic Acid] has a melting point of 181.5 to 182 °C.

Compound `O=C(O)c1ccc(SCc2ccccc2OCc2ccccc2)cc1` [Example 18, 4-[2-Benzyloxybenzylthio]benzoic Acid] has a melting point of 144 °C.

`O=C(Nc1cccnc1)c1ccc(SCc2ccccc2OCc2ccccc2)cc1` [Example 19, N-(3-Pyridyl)-4-[2-benzyloxybenzylthio]benzamide] showed a melting point of 108 °C.

`O=C(O)c1ccc(CCCc2ccccc2Sc2ccccc2)cc1` [Example 32, 4-[3-(2-(phenylthio)phenyl)propyl]benzoic Acid] showed a melting point of 90 to 91 °C.

In the case of `O=C(O)c1ccc(OCc2ccccc2OCc2ccccc2)cc1` [Example 21, 4-(2-(Benzyloxy)benzyloxy)benzoic Acid], the melting point is reported as 176.8 to 178.8 °C.

Work on `CC(Nc1cc(Br)ccc1OCc1ccccc1)c1ccc(C(=O)O)cc1` (centres unmarked) [Example 39, 4-[1-(N-(2-Benzyloxy-5-bromophenyl)-amino)ethyl]benzoic Acid] yielded a melting point of 186.5 to 187 °C.

With `O=C(O)c1ccc(NCc2cc(Br)ccc2CCc2ccccc2)cc1` [Example 4, 4-[N-(5-Bromo-2-(phenethyl)benzyl)amino]Benzoic Acid] the melting point was 126 to 127 °C.

In the case of `O=C(O)c1ccc(CCCc2ccccc2Cc2ccccc2)cc1` [Example 34, 4-[3-(2-benzylphenyl)propyl]benzoic Acid], the melting point is reported as 135 to 136 °C.

For `CC(Oc1ccc(C(=O)O)cc1)c1ccccc1OCc1ccccc1` (centres unmarked) [Example 22, 4-(1-(2-(Benzyloxy)phenyl)ethoxy)benzoic Acid], the melting point was 108 °C.

With `O=C(O)c1ccc(OCc2ccccc2CCc2ccccc2)cc1` [Example 23, 4-(2-(phenethyl)benzyloxy)benzoic Acid] the melting point was 178 to 180 °C.
